This passage reports IC50 results from US9187472B2 (AbbVie Inc., priority 2012, dated 2015).

Some results are limits rather than exact numbers.

In experiment [1] the target is NAMPT (human, recombinant, C-terminally His-tagged) (Homo sapiens, UniProt P43490). The experiment in a line: Time-Resolved Fluorescence Resonance Energy Transfer (TR-FRET) Binding Assay of NAMPT. Conditions: without substrates; 6.8 nM NAMPT, 200 nM probe, 3 hours equilibration. Put shortly:
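In a displacement format, the nicotinamide-site tracer at 200 nM competed with test compound for 6.8 nM enzyme detected via 1 nM terbium anti-His antibody; incubation lasted 3 hours at room temperature in 50 mM HEPES pH 7.5, 100 mM NaCl. Normalized 520/495 nm emission ratios gave IC50 values.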

The test system of a further experiment is PC3 cells. The experiment in a line: NAMPT Cell Proliferation Assay. The experiment is classed as cell-based. The following applies: Homo sapiens, PC-3, 120 h, 5 days incubation, cell viability by Cell Titer Glo. In outline: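 PC3 cells were plated at 500 cells/well in RPMI with 10% heat-inactivated FBS, left to attach overnight, then given compounds in 10-fold dilutions from 10 μM to 1×10^−5 μM. After 5 days at 37° C and 5% CO2, viability was read by luminescence and IC50s came from sigmoidal fits of percent inhibition.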

The target in another experiment is NAMPT (Homo sapiens, UniProt P43490). Kind of experiment: TR-FRET Binding Assay of NAMPT with PRPP. The following applies: with 200 μM PRPP and 2.5 mM ATP; 2 nM NAMPT, 2 nM probe, 16 hours equilibration. Put shortly: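 Substrate-containing variant: 200 μM PRPP plus 2.5 mM ATP are added to 2 nM NAMPT and 2 nM probe, with a 16-hour incubation ahead of TR-FRET reading.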
Sequence of NAMPT (P43490 whole entry): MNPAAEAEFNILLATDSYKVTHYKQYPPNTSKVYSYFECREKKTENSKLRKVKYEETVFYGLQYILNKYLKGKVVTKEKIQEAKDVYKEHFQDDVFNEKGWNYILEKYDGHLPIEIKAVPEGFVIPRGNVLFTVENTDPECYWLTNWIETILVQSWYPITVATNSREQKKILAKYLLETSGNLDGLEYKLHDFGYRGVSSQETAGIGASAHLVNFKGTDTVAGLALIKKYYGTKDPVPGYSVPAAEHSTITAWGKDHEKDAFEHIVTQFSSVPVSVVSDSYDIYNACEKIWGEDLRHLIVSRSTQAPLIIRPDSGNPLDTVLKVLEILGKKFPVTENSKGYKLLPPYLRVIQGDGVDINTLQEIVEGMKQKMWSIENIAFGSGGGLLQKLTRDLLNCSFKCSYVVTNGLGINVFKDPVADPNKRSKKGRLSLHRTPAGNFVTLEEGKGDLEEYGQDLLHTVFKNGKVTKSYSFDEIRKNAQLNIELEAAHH

Sequence of NAMPT (human, recombinant, C-terminally His-tagged) (P43490 whole entry): as above

With `CC(C)(O)C(=O)N1CCC(Oc2ccc(NC(=O)NCc3ccn4ccnc4c3)cc2)CC1` [Example 447, 1-(4-{[1-(2-hydroxy-2-methylpropanoyl)piperidin-4-yl]oxy}phenyl)-3-(imidazo[1,2-a]pyridin-7-ylmethyl)urea], the IC50 in experiment [1] was found to be 0.261 µM; in the experiment with PC3 cells it was 0.0125 µM; at NAMPT it was 0.000232 µM.

On to `O=C(NCc1ccn2ccnc2c1)Nc1ccc(OC2CCN(C(=O)[C@H]3CCCO3)CC2)cc1` [Example 448, 1-(imidazo[1,2-a]pyridin-7-ylmethyl)-3-[4-({1-[(2R)-tetrahydrofuran-2-ylcarbonyl]piperidin-4-yl}oxy)phenyl]urea], for which the IC50 in experiment [1] stood at 0.175 µM; with PC3 cells, 0.0678 µM; at NAMPT, 0.000176 µM.

Consider `O=C(NCc1ccn2ccnc2c1)Nc1ccc(OC2CCN(C(=O)[C@@H]3CCCO3)CC2)cc1` [Example 449, 1-(imidazo[1,2-a]pyridin-7-ylmethyl)-3-[4-({1-[(2S)-tetrahydrofuran-2-ylcarbonyl]piperidin-4-yl}oxy)phenyl]urea], for which the IC50 in experiment [1] was 0.256 µM; in the experiment with PC3 cells it was 0.0236 µM; at NAMPT, 0.000169 µM.

On to `O=C(NCc1ccn2ccnc2c1)Nc1ccc(OC2CCN(C(=O)C3CCOCC3)CC2)cc1` [Example 450, 1-(imidazo[1,2-a]pyridin-7-ylmethyl)-3-(4-{[1-(tetrahydro-2H-pyran-4-ylcarbonyl)piperidin-4-yl]oxy}phenyl)urea], for which the IC50 was 0.422 µM in experiment [1], 0.0701 µM in the experiment on PC3 cells and 0.000244 µM on NAMPT.

Take `O=C(NCc1ccn2ccnc2c1)Nc1ccc(OC2CCN(C(=O)CC3CCOCC3)CC2)cc1` [Example 451, 1-(imidazo[1,2-a]pyridin-7-ylmethyl)-3-(4-{[1-(tetrahydro-2H-pyran-4-ylacetyl)piperidin-4-yl]oxy}phenyl)urea]: the values for the IC50 (in experiment [1]; in the experiment with PC3 cells; at NAMPT) were 0.4 µM, 0.0173 µM and 0.000373 µM, respectively.

In the case of `CC(C)C(=O)N1CC(c2ccc(NC(=O)NCc3ccn4ccnc4c3)cc2)C1` [Example 452, 1-(imidazo[1,2-a]pyridin-7-ylmethyl)-3-{4-[1-(2-methylpropanoyl)azetidin-3-yl]phenyl}urea], the IC50 in experiment [1] was 0.293 µM; in the experiment with PC3 cells, 0.0592 µM; on NAMPT it was 0.000285 µM.

Take `CC[C@H](C)C(=O)N1CC(c2ccc(NC(=O)NCc3ccn4ccnc4c3)cc2)C1` [Example 453, 1-(imidazo[1,2-a]pyridin-7-ylmethyl)-3-(4-{1-[(2S)-2-methylbutanoyl]azetidin-3-yl}phenyl)urea]: the IC50 in experiment [1] was found to be 0.152 µM; in the experiment on PC3 cells, 0.00921 µM; at NAMPT, 0.000258 µM.

For `O=C(NCc1ccn2ccnc2c1)Nc1ccc(C2CN(C(=O)CC3CC3)C2)cc1` [Example 454, 1-{4-[1-(cyclopropylacetyl)azetidin-3-yl]phenyl}-3-(imidazo[1,2-a]pyridin-7-ylmethyl)urea], the IC50 in experiment [1] turned out to be 0.405 µM; in the experiment with PC3 cells, 0.0422 µM; on NAMPT, 0.00034 µM.

Take `O=C(NCc1ccn2ccnc2c1)Nc1ccc(C2CN(C(=O)c3ccccc3)C2)cc1` [Example 455, 1-[4-(1-benzoylazetidin-3-yl)phenyl]-3-(imidazo[1,2-a]pyridin-7-ylmethyl)urea]: the IC50 in experiment [1] is 0.0167 µM; in the experiment with PC3 cells, 0.0035 µM; at NAMPT it was 0.000194 µM.

Consider `CC(C)OCC(=O)N1CC(c2ccc(NC(=O)NCc3ccn4ccnc4c3)cc2)C1` [Example 456, 1-(imidazo[1,2-a]pyridin-7-ylmethyl)-3-(4-{1-[(propan-2-yloxy)acetyl]azetidin-3-yl}phenyl)urea], for which the IC50 in experiment [1] was determined as 0.389 µM; with PC3 cells, 0.0496 µM; at NAMPT, 0.000169 µM.

In the case of `CC(C)(O)C(=O)N1CC(c2ccc(NC(=O)NCc3ccn4ccnc4c3)cc2)C1` [Example 457, 1-{4-[1-(2-hydroxy-2-methylpropanoyl)azetidin-3-yl]phenyl}-3-(imidazo[1,2-a]pyridin-7-ylmethyl)urea], the IC50 in experiment [1] was 1.14 µM; in the experiment with PC3 cells it was 0.194 µM; at NAMPT it was 0.000487 µM.

Regarding `O=C(NCc1ccn2ccnc2c1)Nc1ccc(C2CN(C(=O)[C@H]3CCCO3)C2)cc1` [Example 458, 1-(imidazo[1,2-a]pyridin-7-ylmethyl)-3-(4-{1-[(2R)-tetrahydrofuran-2-ylcarbonyl]azetidin-3-yl}phenyl)urea], the IC50 worked out at 0.94 µM in experiment [1], 0.183 µM in the experiment on PC3 cells and 0.000382 µM at NAMPT.

For the compound `O=C(NCc1ccn2ccnc2c1)Nc1ccc(C2CN(C(=O)[C@@H]3CCCO3)C2)cc1` [Example 459], the values for the IC50 (in experiment [1]; in the experiment on PC3 cells; at NAMPT) were 0.381 µM, 0.0777 µM and 0.00041 µM, respectively.

Regarding `O=C(NCc1ccn2ccnc2c1)Nc1ccc(C2CN(C(=O)C3CCOCC3)C2)cc1` [Example 460, 1-(imidazo[1,2-a]pyridin-7-ylmethyl)-3-{4-[1-(tetrahydro-2H-pyran-4-ylcarbonyl)azetidin-3-yl]phenyl}urea], the IC50 in experiment [1] is 0.569 µM; with PC3 cells, 0.0509 µM; at NAMPT, 0.000307 µM.

`O=C(NCc1ccn2ccnc2c1)Nc1ccc(C2CN(C(=O)CC3CCOCC3)C2)cc1` [Example 461, 1-(imidazo[1,2-a]pyridin-7-ylmethyl)-3-{4-[1-(tetrahydro-2H-pyran-4-ylacetyl)azetidin-3-yl]phenyl}urea]: the IC50 in experiment [1] stood at 0.459 µM; in the experiment with PC3 cells it was 0.0314 µM; at NAMPT, 0.000169 µM.

Regarding `O=C(CC1CCCC1)Nc1ccc(C(=O)NCc2ccc3nccn3c2)c(F)c1` [Example 462, 4-[(cyclopentylacetyl)amino]-2-fluoro-N-(imidazo[1,2-a]pyridin-6-ylmethyl)benzamide], the results for the IC50 (in experiment [1]; in the experiment with PC3 cells; at NAMPT) were 0.0591 µM, 0.00743 µM and 0.000266 µM, respectively.

Regarding `O=C(CC1CCCC1)Nc1ccc(C(=O)NCc2ccn3ccnc3c2)c(F)c1` [Example 463, 4-[(cyclopentylacetyl)amino]-2-fluoro-N-(imidazo[1,2-a]pyridin-7-ylmethyl)benzamide], the IC50 in experiment [1] came to 0.314 µM; in the experiment on PC3 cells, 0.234 µM; at NAMPT, 0.000529 µM.

For the compound `O=C(NCc1ccn2ccnc2c1)c1ccc(-c2ccc(N3CCOCC3)nc2)s1` [Example 464, N-(imidazo[1,2-a]pyridin-7-ylmethyl)-5-[6-(morpholin-4-yl)pyridin-3-yl]thiophene-2-carboxamide], the concentration for half-maximal inhibition (IC50) stood at 0.0634 µM in experiment [1], 0.00679 µM in the experiment on PC3 cells and 0.000169 µM at NAMPT.

With `CC1(Cn2cc(-c3ccc(C(=O)NCc4ccn5ccnc5c4)s3)cn2)CCCCO1` (stereo not drawn) [Example 465, N-(imidazo[1,2-a]pyridin-7-ylmethyl)-5-{1-[(2-methyltetrahydro-2H-pyran-2-yl)methyl]-1H-pyrazol-4-yl}thiophene-2-carboxamide], the IC50 worked out at 0.0138 µM in experiment [1], 0.000319 µM with PC3 cells and 0.000169 µM at NAMPT.

Turning to `CC(C)(C)OC(=O)N1CCC(Cn2cc(-c3ccc(C(=O)NCc4ccn5ccnc5c4)s3)cn2)CC1` [Example 466, tert-butyl 4-[(4-{5-[(imidazo[1,2-a]pyridin-7-ylmethyl)carbamoyl]thiophen-2-yl}-1H-pyrazol-1-yl)methyl]piperidine-1-carboxylate], the IC50 in experiment [1] is 0.0749 µM; with PC3 cells, 0.00431 µM; on NAMPT it was 0.000287 µM.

For the compound `CC(C)CC(=O)N1CCC(c2ccc(C(=O)NCc3ccn4ccnc4c3)s2)C1` (stereo not drawn) [Example 467, N-(imidazo[1,2-a]pyridin-7-ylmethyl)-5-[1-(3-methylbutanoyl)pyrrolidin-3-yl]thiophene-2-carboxamide], the values for the IC50 (in experiment [1]; with PC3 cells; on NAMPT) were 0.0911 µM, 0.00402 µM and 0.000278 µM, respectively.

On to `CC(C)C(=O)NC1(c2ccc(C(=O)NCc3ccn4ccnc4c3)s2)CCC1` [Example 468, N-(imidazo[1,2-a]pyridin-7-ylmethyl)-5-{1-[(2-methylpropanoyl)amino]cyclobutyl}thiophene-2-carboxamide], for which the results for the IC50 (in experiment [1]; in the experiment on PC3 cells; at NAMPT) were > 10 µM, 2.93 µM and 0.000985 µM, respectively.

Turning to `CC(C)CC(=O)NC1(c2ccc(C(=O)NCc3ccn4ccnc4c3)s2)CCC1` [Example 469, N-(imidazo[1,2-a]pyridin-7-ylmethyl)-5-{1-[(3-methylbutanoyl)amino]cyclobutyl}thiophene-2-carboxamide], the values for the IC50 (in experiment [1]; with PC3 cells; on NAMPT) were > 10 µM, 3.38 µM and 0.000432 µM, respectively.

In the case of `CC[C@H](C)C(=O)NC1(c2ccc(C(=O)NCc3ccn4ccnc4c3)s2)CCC1` [Example 470, N-(imidazo[1,2-a]pyridin-7-ylmethyl)-5-(1-{[(2S)-2-methylbutanoyl]amino}cyclobutyl)thiophene-2-carboxamide], the figures for the half-maximal inhibitory concentration (IC50) (in experiment [1]; in the experiment on PC3 cells; at NAMPT) were 5.58 µM, 0.936 µM and 0.000456 µM, respectively.

`O=C(NC1(c2ccc(C(=O)NCc3ccn4ccnc4c3)s2)CCC1)c1ccccc1` [Example 471, 5-[1-(benzoylamino)cyclobutyl]-N-(imidazo[1,2-a]pyridin-7-ylmethyl)thiophene-2-carboxamide]: the IC50 in experiment [1] stood at 3.44 µM; with PC3 cells, 6.51 µM; at NAMPT, 0.000471 µM.
